In the supplement of paper PMC10307832:

How the values were obtained:
Experiment in all cases: relative viability (nuclei count vs DMSO), 5 days (fraction); higher = more cells survive
QS11 + Lapatinib = compound: C1CC2=C(C1)C=C(C=C2)OC3=NC(=C4C(=N3)N(C=N4)CC5=CC=C(C=C5)C6=CC=CC=C6)N[C@@H](CC7=CC=CC=C7)CO [QS11] + CS(=O)(=O)CCNCc1ccc(-c2ccc3ncnc(Nc4ccc(OCc5cccc(F)c5)c(Cl)c4)c3c2)o1 [Lapatinib] (partner 2 µM)
Outline: (§1)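 For relative viability, nuclei counts in treated wells were divided by those in vehicle wells. Lung cancer cell lines had been pin-tool dosed in 1536-well plates the day after seeding and cultured for 5 days, then fixed and stained in one step (final 0.05% Triton X-100, 1% formaldehyde, 1 ug/ml Hoechst) and imaged at 4×. Doses were one drug alone or a fixed anchor-drug dose plus five library-drug doses (not always all listed) in √10 steps, and values are duplicate-plate medians.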

QS11 + Olaparib = compound: C1CC2=C(C1)C=C(C=C2)OC3=NC(=C4C(=N3)N(C=N4)CC5=CC=C(C=C5)C6=CC=CC=C6)N[C@@H](CC7=CC=CC=C7)CO [QS11] + O=C(c1cc(Cc2n[nH]c(=O)c3ccccc23)ccc1F)N1CCN(C(=O)C2CC2)CC1 [Olaparib] (partner 8 µM)
Outline: as §1

[1] = compound: C[As](C)SC[C@H](NC(=O)CC[C@H](N)C(=O)O)C(=O)NCC(=O)O [Darinaparsin] + CC(C)C[C@H](NC(=O)[C@H](Cc1ccccc1)NC(=O)c1cnccn1)B(O)O [Bortezomib] (partner 0.002 µM)
Outline: as §1

[2] = compound: C[As](C)SC[C@H](NC(=O)CC[C@H](N)C(=O)O)C(=O)NCC(=O)O [Darinaparsin] + Cc1cc(Nc2cc(N3CCN(C)CC3)nc(Sc3ccc(NC(=O)C4CC4)cc3)n2)n[nH]1 [Tozasertib] (partner 0.1 µM)
Outline: as §1

[3] = compound: C[As](C)SC[C@H](NC(=O)CC[C@H](N)C(=O)O)C(=O)NCC(=O)O [Darinaparsin] + Nc1ncn([C@H]2C[C@H](O)[C@@H](CO)O2)c(=O)n1 [Decitabine] (partner 2 µM)
Outline: as §1

With LCLC-97TM1 as the cell line, how does the relative viability (QS11 + Lapatinib; first compound 0.08 µM) read?
Its relative viability is 0.484.

And the relative viability (QS11 + Lapatinib; first compound 0.253 µM)?
Its relative viability is 1.12.

What about the relative viability (QS11 + Lapatinib; first compound 0.8 µM) of the same cell line?
The relative viability was 0.96.

And the relative viability (QS11 + Lapatinib; first compound 2.53 µM)?
Its relative viability is 1.24.

And the relative viability (QS11 + Lapatinib; first compound 8 µM)?
The relative viability was 0.673.

What about the relative viability (QS11 + Olaparib; first compound 0.253 µM) of the same cell line?
Its relative viability is 0.428.

What about the relative viability (QS11 + Olaparib; first compound 2.53 µM) of the same cell line?
Its relative viability is 0.495.

What about the relative viability (QS11 + Olaparib; first compound 8 µM) of the same cell line?
The relative viability was 0.464.

And the relative viability ([1]; first compound 0.08 µM)?
Its relative viability is 0.765.

What about the relative viability ([1]; first compound 0.8 µM) of the same cell line?
The relative viability was 0.513.

And the relative viability ([1]; first compound 2.53 µM)?
Its relative viability is 0.416.

What about the relative viability ([1]; first compound 8 µM) of the same cell line?
The relative viability was 0.481.

And the relative viability ([2]; first compound 0.08 µM)?
Its relative viability is 0.215.

And the relative viability ([2]; first compound 0.8 µM)?
The relative viability was 0.199.

What about the relative viability ([2]; first compound 2.53 µM) of the same cell line?
Its relative viability is 0.194.

What about the relative viability ([2]; first compound 8 µM) of the same cell line?
Its relative viability is 0.197.

And the relative viability ([3]; first compound 0.08 µM)?
Its relative viability is 0.246.

And the relative viability ([3]; first compound 0.8 µM)?
The relative viability was 0.252.

What about the relative viability ([3]; first compound 2.53 µM) of the same cell line?
The relative viability was 0.211.

And the relative viability ([3]; first compound 8 µM)?
The relative viability was 0.258.
